Laboratory results as given in ChEMBL document CHEMBL5678812, “Inhibitors of p21-activated kinases (PAKs)” (J Med Chem, 2015).
Blank lines part the entries; values can stand above or below the molecule they belong to.

Key:
[1] = biological target: Ephrin type-A receptor 1 (Homo sapiens) (UniProt P21709); assay: Inhibition of EphA1 (unknown origin) at 0.1 uM relative to control
Homo sapiens = species: Homo sapiens; assay: Inhibition of KHS1 (unknown origin) at 0.1 uM relative to control
[2] = biological target: LIM domain kinase 1 (Homo sapiens) (UniProt P53667); assay: Inhibition of LIMK1 (unknown origin) at 0.1 uM relative to control
[3] = biological target: Serine/threonine-protein kinase SIK2 (Homo sapiens) (UniProt Q9H0K1); assay: Inhibition of SIK2 (unknown origin) at 0.1 uM relative to control
Serine/threonine-protein kinase SIK2 (Homo sapiens), sequence (Q9H0K1 whole entry, looked up): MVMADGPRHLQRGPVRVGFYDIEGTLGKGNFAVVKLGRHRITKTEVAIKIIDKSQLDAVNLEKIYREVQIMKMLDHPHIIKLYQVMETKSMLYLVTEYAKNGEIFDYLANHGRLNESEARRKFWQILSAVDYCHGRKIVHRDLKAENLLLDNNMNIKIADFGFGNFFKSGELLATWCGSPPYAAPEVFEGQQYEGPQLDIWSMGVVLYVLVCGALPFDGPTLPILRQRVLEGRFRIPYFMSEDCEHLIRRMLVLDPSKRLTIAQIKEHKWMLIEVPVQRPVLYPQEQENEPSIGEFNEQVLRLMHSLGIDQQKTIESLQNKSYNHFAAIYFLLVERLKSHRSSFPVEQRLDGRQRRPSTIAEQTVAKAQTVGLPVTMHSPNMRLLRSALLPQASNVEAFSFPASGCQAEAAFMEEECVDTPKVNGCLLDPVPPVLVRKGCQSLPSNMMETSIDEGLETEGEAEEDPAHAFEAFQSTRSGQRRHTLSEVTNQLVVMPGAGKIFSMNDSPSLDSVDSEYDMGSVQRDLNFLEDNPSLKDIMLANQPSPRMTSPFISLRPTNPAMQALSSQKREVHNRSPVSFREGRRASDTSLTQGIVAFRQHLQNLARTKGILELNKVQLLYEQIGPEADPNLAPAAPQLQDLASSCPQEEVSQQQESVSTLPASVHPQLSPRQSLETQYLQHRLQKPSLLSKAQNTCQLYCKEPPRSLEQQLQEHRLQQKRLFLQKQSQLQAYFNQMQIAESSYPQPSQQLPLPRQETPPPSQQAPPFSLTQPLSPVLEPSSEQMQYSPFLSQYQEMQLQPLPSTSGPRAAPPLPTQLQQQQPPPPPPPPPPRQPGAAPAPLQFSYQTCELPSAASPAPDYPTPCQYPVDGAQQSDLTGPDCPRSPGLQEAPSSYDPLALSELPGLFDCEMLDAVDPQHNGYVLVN

[4] = biological target: Ephrin type-B receptor 4 (Homo sapiens) (UniProt P54760); assay: Inhibition of EphB4 (unknown origin) at 0.1 uM relative to control
[5] = biological target: Dual specificity tyrosine-phosphorylation-regulated kinase 3 (Homo sapiens) (UniProt O43781); assay: Inhibition of DYRK3 (unknown origin) at 0.1 uM relative to control
Dual specificity tyrosine-phosphorylation-regulated kinase 3 (Homo sapiens), sequence (O43781 whole entry): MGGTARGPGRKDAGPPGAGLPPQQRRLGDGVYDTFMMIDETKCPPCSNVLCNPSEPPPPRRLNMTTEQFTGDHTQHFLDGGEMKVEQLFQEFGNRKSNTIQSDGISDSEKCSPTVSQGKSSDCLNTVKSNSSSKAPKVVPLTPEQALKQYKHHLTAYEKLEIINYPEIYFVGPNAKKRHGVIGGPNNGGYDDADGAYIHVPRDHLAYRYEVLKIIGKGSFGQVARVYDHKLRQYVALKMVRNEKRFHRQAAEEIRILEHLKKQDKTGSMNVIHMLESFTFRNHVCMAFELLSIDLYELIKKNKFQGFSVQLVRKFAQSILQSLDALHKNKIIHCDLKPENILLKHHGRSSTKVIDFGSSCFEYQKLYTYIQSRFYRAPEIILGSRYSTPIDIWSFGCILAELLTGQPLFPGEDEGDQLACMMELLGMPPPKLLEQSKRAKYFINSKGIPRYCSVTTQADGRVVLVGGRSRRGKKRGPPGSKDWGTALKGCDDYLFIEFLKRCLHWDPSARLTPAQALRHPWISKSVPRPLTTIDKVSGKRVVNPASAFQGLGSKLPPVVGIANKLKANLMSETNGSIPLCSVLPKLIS

[6] = biological target: Serine/threonine-protein kinase 24 (Homo sapiens) (UniProt Q9Y6E0); assay: Inhibition of MST3 (unknown origin) at 0.1 uM relative to control
Serine/threonine-protein kinase 24 (Homo sapiens), sequence (Q9Y6E0 whole entry, looked up): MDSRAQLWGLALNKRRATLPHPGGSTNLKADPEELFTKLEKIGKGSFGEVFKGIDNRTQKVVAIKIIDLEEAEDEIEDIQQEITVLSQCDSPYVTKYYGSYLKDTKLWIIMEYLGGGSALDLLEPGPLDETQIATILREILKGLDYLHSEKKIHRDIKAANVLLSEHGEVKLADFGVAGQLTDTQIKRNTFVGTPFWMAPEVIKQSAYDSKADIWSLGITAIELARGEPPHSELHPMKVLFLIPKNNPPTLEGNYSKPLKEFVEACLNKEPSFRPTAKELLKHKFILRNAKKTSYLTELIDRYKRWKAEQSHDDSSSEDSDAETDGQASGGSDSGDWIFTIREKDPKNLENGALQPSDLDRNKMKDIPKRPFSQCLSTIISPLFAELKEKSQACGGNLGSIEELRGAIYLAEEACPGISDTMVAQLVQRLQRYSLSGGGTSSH

[7] = biological target: Angiopoietin-1 receptor (Homo sapiens) (UniProt Q02763); assay: Inhibition of Tie2 (unknown origin) at 0.1 uM relative to control
[8] = biological target: Serine/threonine-protein kinase 26 (Homo sapiens) (UniProt Q9P289); assay: Inhibition of MST4 (unknown origin) at 0.1 uM relative to control
[9] = biological target: Cyclin-dependent kinase 1/cyclin B1 (Homo sapiens) (UniProt P06493+P14635); assay: Inhibition of CDK1/cyclinB (unknown origin) at 0.1 uM relative to control; type: protein-complex assay
Cyclin-dependent kinase 1/cyclin B1 (Homo sapiens), sequence (P06493 whole entry, looked up): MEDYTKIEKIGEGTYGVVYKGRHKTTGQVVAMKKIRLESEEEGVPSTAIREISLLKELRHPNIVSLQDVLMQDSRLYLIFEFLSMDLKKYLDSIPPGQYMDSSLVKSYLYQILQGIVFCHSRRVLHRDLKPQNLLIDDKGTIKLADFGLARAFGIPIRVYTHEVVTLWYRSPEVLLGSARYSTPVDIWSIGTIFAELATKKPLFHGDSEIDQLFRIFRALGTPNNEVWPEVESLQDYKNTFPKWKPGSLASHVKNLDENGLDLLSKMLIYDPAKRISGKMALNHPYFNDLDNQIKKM
Cyclin-dependent kinase 1/cyclin B1 (Homo sapiens), sequence (P14635 whole entry, looked up): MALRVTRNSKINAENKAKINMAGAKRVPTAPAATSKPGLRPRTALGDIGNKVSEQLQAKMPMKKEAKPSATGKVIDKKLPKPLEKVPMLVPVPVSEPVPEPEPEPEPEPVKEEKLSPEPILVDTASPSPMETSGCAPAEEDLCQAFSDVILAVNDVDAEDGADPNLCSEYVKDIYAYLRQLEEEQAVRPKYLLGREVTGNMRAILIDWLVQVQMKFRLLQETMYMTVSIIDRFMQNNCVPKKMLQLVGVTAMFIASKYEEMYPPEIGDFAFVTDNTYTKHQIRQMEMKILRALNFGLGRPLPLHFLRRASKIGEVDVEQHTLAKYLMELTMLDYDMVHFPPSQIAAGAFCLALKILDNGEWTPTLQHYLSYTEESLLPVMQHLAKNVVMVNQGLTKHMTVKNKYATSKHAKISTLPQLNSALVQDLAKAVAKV

[10] = biological target: TGF-beta receptor type-1 (Homo sapiens) (UniProt P36897); assay: Inhibition of TGFBR1 (unknown origin) at 0.1 uM relative to control
[11] = biological target: Serine/threonine-protein kinase Nek1 (Homo sapiens) (UniProt Q96PY6); assay: Inhibition of NEK1 (unknown origin) at 0.1 uM relative to control
Serine/threonine-protein kinase Nek1 (Homo sapiens), sequence (Q96PY6 whole entry): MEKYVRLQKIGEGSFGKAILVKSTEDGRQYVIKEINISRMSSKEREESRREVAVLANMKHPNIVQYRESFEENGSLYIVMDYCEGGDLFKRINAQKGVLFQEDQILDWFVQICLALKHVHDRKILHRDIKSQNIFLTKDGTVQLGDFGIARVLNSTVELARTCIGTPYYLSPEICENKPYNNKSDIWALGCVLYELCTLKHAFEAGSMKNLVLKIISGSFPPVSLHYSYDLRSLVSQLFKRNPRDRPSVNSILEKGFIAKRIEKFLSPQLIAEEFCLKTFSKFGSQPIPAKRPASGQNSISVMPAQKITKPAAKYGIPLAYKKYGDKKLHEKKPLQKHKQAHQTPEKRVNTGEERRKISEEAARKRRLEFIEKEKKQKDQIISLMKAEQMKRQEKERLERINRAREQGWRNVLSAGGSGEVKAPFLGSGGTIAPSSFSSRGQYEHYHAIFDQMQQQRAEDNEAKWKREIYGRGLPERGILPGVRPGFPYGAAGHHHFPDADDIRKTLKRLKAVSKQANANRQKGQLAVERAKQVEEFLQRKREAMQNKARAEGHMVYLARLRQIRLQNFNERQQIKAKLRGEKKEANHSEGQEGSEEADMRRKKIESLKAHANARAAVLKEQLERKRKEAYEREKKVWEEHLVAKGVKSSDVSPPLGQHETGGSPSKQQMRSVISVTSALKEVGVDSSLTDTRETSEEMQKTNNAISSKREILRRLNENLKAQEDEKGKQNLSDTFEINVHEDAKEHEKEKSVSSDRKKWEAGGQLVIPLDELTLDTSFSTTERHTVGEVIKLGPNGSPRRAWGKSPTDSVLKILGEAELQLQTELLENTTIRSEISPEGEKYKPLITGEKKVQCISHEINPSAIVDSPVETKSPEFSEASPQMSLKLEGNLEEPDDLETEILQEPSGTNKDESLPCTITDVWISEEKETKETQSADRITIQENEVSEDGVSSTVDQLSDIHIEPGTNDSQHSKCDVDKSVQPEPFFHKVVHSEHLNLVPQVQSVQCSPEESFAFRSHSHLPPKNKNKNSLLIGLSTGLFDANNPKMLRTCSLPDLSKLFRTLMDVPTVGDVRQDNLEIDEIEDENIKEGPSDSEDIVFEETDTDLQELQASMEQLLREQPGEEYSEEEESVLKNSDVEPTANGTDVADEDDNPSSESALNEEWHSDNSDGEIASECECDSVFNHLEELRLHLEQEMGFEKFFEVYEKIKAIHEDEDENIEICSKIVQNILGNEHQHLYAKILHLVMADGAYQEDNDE

[12] = biological target: Serine/threonine-protein kinase MRCK alpha (Homo sapiens) (UniProt Q5VT25); assay: Inhibition of MRCKalpha (unknown origin) at 0.1 uM relative to control
[13] = biological target: MAP kinase-interacting serine/threonine-protein kinase 1 (Homo sapiens) (UniProt Q9BUB5); assay: Inhibition of MKNK1 (unknown origin) at 0.1 uM relative to control
[14] = biological target: Casein kinase I isoform alpha (Homo sapiens) (UniProt P48729); assay: Inhibition of CK1alpha1 (unknown origin) at 0.1 uM relative to control
[15] = biological target: Cyclin-dependent kinase 5/CDK5 activator 1 (Homo sapiens) (UniProt Q00535+Q15078); assay: Inhibition of CDK5/p25 (unknown origin) at 0.1 uM relative to control; type: protein-complex assay
[16] = biological target: Inhibitor of nuclear factor kappa-B kinase subunit epsilon (Homo sapiens) (UniProt Q14164); assay: Inhibition of IKKepsilon (unknown origin) at 0.1 uM relative to control
[17] = biological target: Serine/threonine-protein kinase Sgk1 (Homo sapiens) (UniProt O00141); assay: Inhibition of SGK1 (unknown origin) at 0.1 uM relative to control
[18] = biological target: Serine/threonine-protein kinase PLK2 (Homo sapiens) (UniProt Q9NYY3); assay: Inhibition of PLK2 (unknown origin) at 0.1 uM relative to control
[19] = biological target: Mitogen-activated protein kinase 12 (Homo sapiens) (UniProt P53778); assay: Inhibition of p38gamma (unknown origin) at 0.1 uM relative to control
[20] = biological target: Leukocyte tyrosine kinase receptor (Homo sapiens) (UniProt P29376); assay: Inhibition of LTK (unknown origin) at 0.1 uM relative to control
[21] = biological target: Focal adhesion kinase 1 (Homo sapiens) (UniProt Q05397); assay: Inhibition of FAK (unknown origin) at 0.1 uM relative to control
[22] = biological target: Proto-oncogene tyrosine-protein kinase ROS (Homo sapiens) (UniProt P08922); assay: Inhibition of Ros (unknown origin) at 0.1 uM relative to control
[23] = biological target: Interleukin-1 receptor-associated kinase 4 (Homo sapiens) (UniProt Q9NWZ3); assay: Inhibition of IRAK4 (unknown origin) at 0.1 uM relative to control
[24] = biological target: Serine/threonine-protein kinase DCLK2 (Homo sapiens) (UniProt Q8N568); assay: Inhibition of DCAMKL2 (unknown origin) at 0.1 uM relative to control
[25] = biological target: Beta-adrenergic receptor kinase 1 (Homo sapiens) (UniProt P25098); assay: Inhibition of GRK2 (unknown origin) at 0.1 uM relative to control
[26] = biological target: Muscle, skeletal receptor tyrosine-protein kinase (Homo sapiens) (UniProt O15146); assay: Inhibition of MUSK (unknown origin) at 0.1 uM relative to control
[27] = biological target: Calcium/calmodulin-dependent protein kinase type II subunit delta (Homo sapiens) (UniProt Q13557); assay: Inhibition of CaMKIIdelta (unknown origin) at 0.1 uM relative to control
[28] = biological target: Tyrosine-protein kinase receptor TYRO3 (Homo sapiens) (UniProt Q06418); assay: Inhibition of Rse (unknown origin) at 0.1 uM relative to control
[29] = biological target: Ephrin type-A receptor 8 (Homo sapiens) (UniProt P29322); assay: Inhibition of EphA8 (unknown origin) at 0.1 uM relative to control
[30] = biological target: Tyrosine-protein kinase Lyn (Homo sapiens) (UniProt P07948); assay: Inhibition of Lyn (unknown origin) at 0.1 uM relative to control
[31] = biological target: Rho-associated protein kinase 1 (Homo sapiens) (UniProt Q13464); assay: Inhibition of ROCK1 (unknown origin) at 0.1 uM relative to control
[32] = biological target: Insulin receptor (Homo sapiens) (UniProt P06213); assay: Inhibition of InsR (unknown origin) at 0.1 uM relative to control
[33] = biological target: Dual specificity protein kinase CLK2 (Homo sapiens) (UniProt P49760); assay: Inhibition of CLK2 (unknown origin) at 0.1 uM relative to control
[34] = biological target: Tyrosine-protein kinase CSK (Homo sapiens) (UniProt P41240); assay: Inhibition of CSK (unknown origin) at 0.1 uM relative to control
[35] = biological target: Death-associated protein kinase 3 (Homo sapiens) (UniProt O43293); assay: Inhibition of ZIPK (unknown origin) at 0.1 uM relative to control
[36] = biological target: DNA-PK/Ku70/Ku85 (Homo sapiens) (UniProt P78527+P12956+P13010); assay: Inhibition of DNA-PK (unknown origin) at 0.1 uM relative to control; type: protein-complex assay
[37] = biological target: MAP kinase-activated protein kinase 2 (Homo sapiens) (UniProt P49137); assay: Inhibition of MAPKAPK2 (unknown origin) at 0.1 uM relative to control
[38] = biological target: Tyrosine-protein kinase Yes (Homo sapiens) (UniProt P07947); assay: Inhibition of Yes (unknown origin) at 0.1 uM relative to control

Ephrin type-A receptor 1 (Homo sapiens), sequence (P21709 whole entry): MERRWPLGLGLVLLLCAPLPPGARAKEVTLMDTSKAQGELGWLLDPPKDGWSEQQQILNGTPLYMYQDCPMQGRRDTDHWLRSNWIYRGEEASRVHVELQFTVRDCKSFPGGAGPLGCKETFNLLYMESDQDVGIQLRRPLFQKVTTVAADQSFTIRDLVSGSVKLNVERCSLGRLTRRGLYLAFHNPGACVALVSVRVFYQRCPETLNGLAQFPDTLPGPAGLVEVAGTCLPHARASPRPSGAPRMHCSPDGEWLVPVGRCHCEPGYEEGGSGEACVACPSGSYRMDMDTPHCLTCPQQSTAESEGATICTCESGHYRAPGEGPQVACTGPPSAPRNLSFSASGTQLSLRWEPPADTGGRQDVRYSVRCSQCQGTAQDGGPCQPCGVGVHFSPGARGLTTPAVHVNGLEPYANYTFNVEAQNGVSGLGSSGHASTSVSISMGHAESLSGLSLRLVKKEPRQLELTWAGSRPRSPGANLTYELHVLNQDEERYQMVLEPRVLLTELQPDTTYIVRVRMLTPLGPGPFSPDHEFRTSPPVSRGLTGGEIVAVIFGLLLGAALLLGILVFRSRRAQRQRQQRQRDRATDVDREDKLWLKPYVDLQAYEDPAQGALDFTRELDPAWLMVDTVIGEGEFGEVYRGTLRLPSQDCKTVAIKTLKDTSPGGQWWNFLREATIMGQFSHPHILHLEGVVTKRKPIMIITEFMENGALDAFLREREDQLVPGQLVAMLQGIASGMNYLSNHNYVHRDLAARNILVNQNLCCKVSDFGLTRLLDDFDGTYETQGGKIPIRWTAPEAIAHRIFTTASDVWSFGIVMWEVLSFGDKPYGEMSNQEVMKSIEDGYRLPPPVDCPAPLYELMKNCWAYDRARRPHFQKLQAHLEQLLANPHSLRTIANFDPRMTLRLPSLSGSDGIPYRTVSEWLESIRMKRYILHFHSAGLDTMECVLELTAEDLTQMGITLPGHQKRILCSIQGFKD

- inhibition [1]: 90.7%
- inhibition (Homo sapiens): 105%
- inhibition [2]: 42.4%
- inhibition [3]: 96.3%
- inhibition [4]: 78.9%
- inhibition [5]: 3.8%
- inhibition [6]: 70.2%
- inhibition [7]: 24.8%
- inhibition [8]: 82%
- inhibition [9]: 16.5%
- inhibition [10]: 99.3%
- inhibition [11]: 1.5%
Compound: CN1CCc2cc(-c3cnc4[nH]cc(C(=O)c5ccccc5Cl)c4c3)ccc2C1

- inhibition [12]: -2.4%
- inhibition [13]: -2.7%
- inhibition [14]: 8.8%
- inhibition [1]: 5%
- inhibition [15]: 4.3%
- inhibition [16]: 6%
- inhibition [17]: 4.4%
- inhibition [18]: 10.8%
- inhibition [19]: 8.1%
- inhibition [20]: -0.9%
- inhibition [21]: 3.5%
- inhibition [22]: 6.8%
- inhibition [3]: 0.8%
- inhibition [4]: 5.3%
- inhibition [23]: 4.3%
- inhibition [24]: 10.9%
- inhibition [5]: 0.9%
- inhibition [6]: 5.9%
- inhibition [25]: -9.6%
- inhibition [26]: -2.8%
- inhibition [27]: 6.9%
- inhibition [9]: 8.1%
- inhibition [28]: 1.4%
- inhibition [29]: 9.8%
- inhibition [30]: -2.7%
- inhibition [31]: 0.8%
- inhibition [32]: 3.5%
- inhibition [33]: 0%
- inhibition [34]: 9.8%
- inhibition [11]: 0.3%
- inhibition [36]: -6.3%
- inhibition [37]: 3.9%
- inhibition [38]: -1.4%
Compound: COCCNc1nc2ccc(C#CC3(O)CCCCC3)cc2n1-c1ccnc(N)n1
- inhibition [35]: 2.9%
